# Test results taken from patent publication US11926580B2, “Hydropersulfide precursors” (THE JOHNS HOPKINS UNIVERSITY, priority 2018, dated 2024).
# Assay: UPLC-MS analysis of RSSH trapping with N-ethylmaleimide
# Assay type: physicochemical
# Conditions: UPLC-MS
# Protocol: FIGS. 2a and 2b provide graphs of (a) UPLC-MS chromatograms of RSSH generation from 4d (200 μM) in the presence of NEM (4 mM) incubated in pH 7.4 ammonium bicarbonate (100 mM) with DTPA (100 μM) at 37° C. A peak at 3.7 min corresponding to N-ethylmaleamic acid (NEMA), derived from NEM hydrolysis, was observed under these conditions (see SI); (b) MS spectrum (ESI+ mode) of the product eluting at 5.06 min corresponding to 5a with m/z 349.0885 (expected m/z 349.0886).
# FIG. 5 provides a graph of UPLC-MS chromatograms of RSSH generation from compound 1 (1 mM) in the presence of NEM (5 mM) incubated in pH 7.4 ammonium bicarbonate buffer containing DTPA (100 μM) for 30 min at 37° C. The asterisk indicates the methyl ester analogue of dialkyl trisulfide 2, which was also formed due to the presence of minor amount of methyl ester analogue of 1. A peak at 3.7 min corresponding to N-ethylmaleamic acid (NEMA), derived from NEM hydrolysis, was observed under these conditions.
# RSSH trapping in the presence of N-ethylmaleimide (NEM) was carried out with a Waters Acquity/Xevo-G2 UPLC-MS system equipped with an ACQUITY UPLC BEH C18 column (2.1 mm×50 mm, 1.7 μm). Typically, RSSH precursor (1 eq) was incubated with NEM (5 to 20 eq) in freshly prepared pH 7 4 ammonium bicarbonate buffer (100 mM) containing DTPA (100 μM) at 37° C. An aliquot of the reaction mixture (300 μL) was withdrawn at specified time points, quenched with 0.25% formic acid (300 μL), and filtered through a 0.22 μm filter. The samples were then loaded into vials in an autosampler maintained at 4° C. and analyzed using UPLC-MS as follows: Mobile phase: 0-1 min 90% water+0% ACN+10% formic acid (0.1%); 1-7.5 min gradient up to 10% water+80% ACN+10% formic acid (0.1%); 7.5-8.4 min 10% water+80% ACN+10% formic acid (0.1%); 8.4-8.5 min gradient up to 90% water+0% ACN+10% formic acid (0.1%), 8.5-10 min 90% water+0% ACN+10% formic acid (0.1%). Flow rate=0.3 mL min^−1. The mass signals for products of RSSH trapping with NEM were obtained via deconvolution using MassLynx 4.1 software.
# To a solution of NEM (5 mM) in pH 7 4 ammonium bicarbonate (100 mM) with DTPA (100 μM) in a 20-mL scintillation vial, hydropersulfide precursor 1 (1 mM, total reaction volume 3 mL) was added. The resulting mixture was incubated at 37° C. for 30 min. An aliquot of 300 μL reaction mixture was withdrawn, quenched with 300 μL of formic acid (0.25%) and analyzed using UPLC-MS.
compound,measurement,setting,value
"CC(=O)NC(C(=O)O)C(C)(C)SSC(=N)Nc1ccccc1.Cl (centres unmarked) [Precursor 4d, ((1-acetamido-1-carboxy-2-methylpropan-2-yl)disulfaneyl)(phenylamino)methaniminium chloride]",RSSH generation (RSS-NEM adduct formation),"NEM trap, pH 7.4 buffer, 37° C.",clean conversion of 4d to the RSS-NEM adduct 5a
same,phenyl cyanamide yield from precursor decomposition,"NEM, pH 7.4, 37° C.",94%
